In ChEMBL document CHEMBL5528066, “Discovery of Novel N-(Anthracen-9-ylmethyl) Benzamide Derivatives as ZNF207 Inhibitors Promising in Treating Glioma” (J Med Chem, 2024):
Activity calls are given as the source filed them. No cut-off for these calls is given here.

Columns and labels:
U-251 [1] = assay: Antiproliferative activity against human U-251MG cells assessed as inhibition of cell growth measured after 72 hrs by CCK-8 assay; assay type: functional, cell-based; settings: U-251, 72 h
[2] = target: BUB3-interacting and GLEBS motif-containing protein ZNF207 (Homo sapiens, UniProt O43670); assay: Binding affinity to ZNF207 in human H4 cells assessed as thermal stabilization by measuring melting temperature at 30 uM incubated for 3 hrs by CETSA (reference value: 48.9 degreeC); assay type: cell-based
BUB3-interacting and GLEBS motif-containing protein ZNF207, sequence (O43670 whole entry): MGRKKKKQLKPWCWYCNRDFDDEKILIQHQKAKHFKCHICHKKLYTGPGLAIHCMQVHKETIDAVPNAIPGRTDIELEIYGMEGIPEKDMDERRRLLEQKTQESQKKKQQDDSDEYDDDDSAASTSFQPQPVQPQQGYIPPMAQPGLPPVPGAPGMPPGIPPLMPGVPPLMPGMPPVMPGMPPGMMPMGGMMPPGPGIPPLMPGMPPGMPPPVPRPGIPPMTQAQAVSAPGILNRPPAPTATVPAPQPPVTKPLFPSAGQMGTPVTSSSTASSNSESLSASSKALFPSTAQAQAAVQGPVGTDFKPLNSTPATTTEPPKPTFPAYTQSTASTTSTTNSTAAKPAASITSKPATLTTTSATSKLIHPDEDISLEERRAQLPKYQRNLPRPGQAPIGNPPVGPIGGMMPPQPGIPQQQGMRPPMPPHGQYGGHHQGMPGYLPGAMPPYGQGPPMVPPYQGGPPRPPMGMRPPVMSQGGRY

LN-229 [3] = assay: Inhibition of sphere formation in human LN-229 cells incubated for 168 hrs by microscopic analysis; assay type: functional, cell-based; settings: LN-229, 168 h
LN-229 [4] = assay: Inhibition of colony formation in human LN-229 cells assessed as reduction in number of cell clones treated on day 1 and measured after 14 days by crystal violet staining based microscopic analysis; assay type: functional; settings: dose 0.625-5 µM, time 14.0 day
U-251 [5] = assay: Inhibition of colony formation in human U-251MG cells assessed as reduction in number of cell clones treated on day 1 and measured after 14 days by crystal violet staining based microscopic analysis; assay type: functional; settings: dose 0.625-5 µM, time 14.0 day
H4 [6] = assay: Inhibition of colony formation in human H4 cells assessed as reduction in colony area at 5 uM treated on day 1 and measured after 14 days by crystal violet staining based microscopic analysis relative to control; assay type: functional; settings: H4, 336 h, time 14 day
Hs 683 [7] = assay: Inhibition of sphere formation in human Hs 683 cells assessed as fold reduction in sphere initiating frequency at 2 uM incubated for 10 days by microscopic analysis relative to control; assay type: functional; settings: time 10 day
Hs 683 [8] = assay: Inhibition of sphere formation in human Hs 683 cells assessed as fold reduction in sphere initiating frequency at 8 uM incubated for 10 days by microscopic analysis relative to control; assay type: functional; settings: time 10 day
U-251 [9] = assay: Inhibition of sphere formation in human U-251MG cells assessed as fold reduction in sphere initiating frequency at 1 uM incubated for 10 days by microscopic analysis relative to control; assay type: functional; settings: time 10 day
H4 [10] = assay: Downregulation of SOX2 protein expression in human H4 cells at 2 to 4 uM incubated for 48 hrs by Western blot analysis; assay type: functional, cell-based; settings: dose 2-4 µM
[11] = Drug concentration in male Sprague-Dawley rat liver at 45 mg/kg, po measured after 8 hrs by LC-MS/MS analysis; assay type: ADME, organism-based; settings: read-out: Ct
[12] = Drug concentration in female Sprague-Dawley rat lung at 45 mg/kg, po measured after 8 hrs by LC-MS/MS analysis; assay type: ADME, organism-based; settings: read-out: Ct
[13] = Drug concentration in male Sprague-Dawley rat stomach at 45 mg/kg, po measured after 8 hrs by LC-MS/MS analysis; assay type: ADME, organism-based; settings: read-out: Ct
MDR1 [14] = assay: Apparent permeability across apical to basolateral side in MDCKII-MDR1 cells at 1 uM incubated for 2 hrs by LC-MS/MS analysis; assay type: ADME, cell-based, Canis lupus familiaris; settings: dog, MDCK-MDR1
MDR1 [15] = assay: Apparent permeability across apical to basolateral side in MDCKII-MDR1 cells assessed as drug recovery at 1 uM incubated for 2 hrs by LC-MS/MS analysis; assay type: ADME, cell-based, Canis lupus familiaris; settings: dog, MDCK-MDR1, read-out: Drug recovery
MDR1 [16] = assay: Apparent permeability across basolateral to apical side in MDCKII-MDR1 cells assessed as drug recovery at 1 uM incubated for 2 hrs by LC-MS/MS analysis; assay type: ADME, cell-based, Canis lupus familiaris; settings: dog, MDCK-MDR1, read-out: Drug recovery
[17] = Toxicity in female C57BL/6 mouse assessed as change in cellular structure of brain at 45 mg/kg, po administered once a day for 2 weeks by H and E staining based analysis; assay type: organism-based; settings: in vivo, 336 h
[18] = Toxicity in male C57BL/6 mouse assessed as change in cellular structure of spleen at 45 mg/kg, po administered once a day for 2 weeks by H and E staining based analysis; assay type: organism-based; settings: in vivo, 336 h
[19] = Toxicity in female C57BL/6 mouse assessed as change in cellular structure of kidney at 45 mg/kg, po administered once a day for 2 weeks by H and E staining based analysis; assay type: organism-based; settings: in vivo, 336 h
[20] = Toxicity in male C57BL/6 mouse assessed as change in cellular structure of intestine at 45 mg/kg, po administered once a day for 2 weeks by H and E staining based analysis; assay type: organism-based; settings: in vivo, 336 h
[21] = Toxicity in female C57BL/6 mouse assessed as change in cellular structure of intestine at 45 mg/kg, po administered once a day for 2 weeks by H and E staining based analysis; assay type: organism-based; settings: in vivo, 336 h
LN-229 [22] = assay: Antitumor activity against human LN-229 cells xenografted in BALB/c nude mouse assessed as reduction in proportion of Ki-67 positive cells at 15 to 45 mg/kg, po administered once a day and measured after 49 days by immunohistochemistry analysis; assay type: functional, organism-based; settings: dose 15-45 mg/kg, time 49.0 day
LN-229-Luc = assay: Antitumor activity against human Ln-229-Luc cells xenografted in BALB/c nude mouse assessed as reduction in tumor load at 45 mg/kg, po administered once a day and measured on day 25 by bioluminescence imaging analysis relative to control; assay type: functional; settings: time 25 day
H4 [23] = assay: Inhibition of sphere formation in human H4 cells at 8 uM measured after 10 days in well containing 10 cells by microscopic analysis; assay type: functional, cell-based; settings: time 10.0 day
H4 [24] = assay: Inhibition of sphere formation in human H4 cells at 4 uM measured after 10 days in well containing 1 cells by microscopic analysis; assay type: functional, cell-based; settings: time 10.0 day
LN-229 [25] = assay: Inhibition of sphere formation in human LN-229 cells at 2 uM measured after 10 days in well containing 10000 cells by microscopic analysis; assay type: functional, cell-based; settings: time 10.0 day
LN-229 [26] = assay: Inhibition of sphere formation in human LN-229 cells at 4 uM measured after 10 days in well containing 100 cells by microscopic analysis; assay type: functional, cell-based; settings: time 10.0 day
LN-229 [27] = assay: Inhibition of sphere formation in human LN-229 cells at 1 uM measured after 10 days in well containing 1 cells by microscopic analysis; assay type: functional, cell-based; settings: time 10.0 day
Hs 683 [28] = assay: Inhibition of sphere formation in human Hs 683 cells at 4 uM measured after 10 days in well containing 10000 cells by microscopic analysis; assay type: functional, cell-based; settings: time 10.0 day
Hs 683 [29] = assay: Inhibition of sphere formation in human Hs 683 cells at 8 uM measured after 10 days in well containing 100 cells by microscopic analysis; assay type: functional, cell-based; settings: time 10.0 day
Hs 683 [30] = assay: Inhibition of sphere formation in human Hs 683 cells at 4 uM measured after 10 days in well containing 10 cells by microscopic analysis; assay type: functional, cell-based; settings: time 10.0 day
Hs 683 [31] = assay: Inhibition of sphere formation in human Hs 683 cells at 2 uM measured after 10 days in well containing 1 cells by microscopic analysis; assay type: functional, cell-based; settings: time 10.0 day
Hs 683 [32] = assay: Inhibition of sphere formation in human Hs 683 cells at 4 uM measured after 10 days in well containing 1 cells by microscopic analysis; assay type: functional, cell-based; settings: time 10.0 day
Hs 683 [33] = assay: Inhibition of sphere formation in human Hs 683 cells at 8 uM measured after 10 days in well containing 1 cells by microscopic analysis; assay type: functional, cell-based; settings: time 10.0 day
U-251 [34] = assay: Inhibition of sphere formation in human U-251MG cells at 4 uM measured after 10 days in well containing 10000 cells by microscopic analysis; assay type: functional, cell-based; settings: time 10.0 day
U-251 [35] = assay: Inhibition of sphere formation in human U-251MG cells at 2 uM measured after 10 days in well containing 1000 cells by microscopic analysis; assay type: functional, cell-based; settings: time 10.0 day
U-251 [36] = assay: Inhibition of sphere formation in human U-251MG cells at 1 uM measured after 10 days in well containing 1 cells by microscopic analysis; assay type: functional, cell-based; settings: time 10.0 day

Compound N#CC1(C(=O)NCCC2CCN(Cc3ccccc3)CC2)CC2(Br)c3ccccc3C1c1ccccc12 (racemic) has an IC50 (U-251 [1]) of 13.1 µM, a Tm [2] of 50.8 °C and an IC50 (LN-229 [3]) of 1230 nM. For the same compound, the inhibition (LN-229 [4]) was “Dose-Dependent Effect”, the inhibition (U-251 [5]) was “Dose-Dependent Effect” and the inhibition at 5 µM (H4 [6]) was 100%. For the same compound, the “fold change (FC)” value (Hs 683 [7]) was 15.75, the “fold change (FC)” value (Hs 683 [8]) was 104.96 and the “fold change (FC)” value (U-251 [9]) was 2.78. The Activity (H4 [10]) was “Active”, the concentration at 8 h [11] was 779 ng/g and the concentration at 8 h [12] was 6360 ng/g. The concentration at 8 h [13] was 608 ng/g, the Papp A→B at 2 h, 1 µM (MDR1 [14]) was 1.26 ×10⁻⁶ cm/s and the recovery at 2 h, 1 µM (MDR1 [15]) was 96%. For the same compound, the recovery at 2 h, 1 µM (MDR1 [16]) was 101%, the Activity [17] was “Non-Toxic” and the Activity [18] was “Non-Toxic”. The Activity [19] was “Non-Toxic”, the Activity [20] was “Non-Toxic” and the Activity [21] was “Non-Toxic”. For the same compound, the Activity (LN-229 [22]) was “Active”, the “fold change (FC)” value (LN-229-Luc) was 7.6 and the inhibition (H4 [23]) was “Active”. For the same compound, the inhibition (H4 [24]) was “Active”, the inhibition (LN-229 [25]) was “inactive” and the inhibition (LN-229 [26]) was “Active”. For the same compound, the inhibition (LN-229 [27]) was “Active”, the inhibition (Hs 683 [28]) was “inactive” and the inhibition (Hs 683 [29]) was “Active”. For the same compound, the inhibition (Hs 683 [30]) was “Active”, the inhibition (Hs 683 [31]) was “Active” and the inhibition (Hs 683 [32]) was “Active”. For the same compound, the inhibition (Hs 683 [33]) was “Active”, the inhibition (U-251 [34]) was “inactive” and the inhibition (U-251 [35]) was “inactive”. For the same compound, the inhibition (U-251 [36]) was “Active”.
